According to paper PMC6220849, “Mechanistic and structural studies of KDM‐catalysed demethylation of histone 1 isotype 4 at lysine 26” (Febs Letters, 2018):
Square brackets hold non-standard residues; d marks the D form. Ends that are not written are not given here. Lys(Me3) = C[N+](C)(C)CCCC[C@H](N)C(=O)O

Tests used:
KDM2A (KDM2A1–557) = experiment: MALDI-TOF MS demethylation activity assay, KDM2A; assay type: biochemical, human; design: key: 🟢: Indicates that clear demethylation activity was observed; 🟡: Indicates that low level demethylation activity was observed (<10% conversion after 1 h); 🔴: Indicates no activity under the stated conditions (1 μM KDM, 10 μM peptide); 🟡*: *Indicates demethylation activity was only observed with 5 μM KDM; details: peptide as substrate, 1 μM KDM, 10 μM peptide, 50 mM HEPES pH 7.5, Fe(II) 10 μM, ascorbate 100 μM, 2OG 200 μM, 1 h at 37 °C
Description: (§1) Recombinant proteins (1 μM) were incubated with peptides (10 μM, sequences are given in Table S1) in 50 mM HEPES, pH 7.5 with addition of Fe(II) ammonium sulfate (10 μM), sodium ascorbate (100 μM) and 2‐oxoglutaric acid (200 μM). Reactions with KDM3A and KDM7A also contained 1 mM tris(2‐carboxyethyl)phosphine hydrochloride. No enzyme reactions were included as negative controls. Reactions were incubated for 1 h at 37 °C before being quenched with 1 : 1 (v/v) methanol. Analysis was carried out by MALDI‐TOF MS (Bruker, Billerica, MA, USA), with demethylation observed as mass shifts of 14 Da.
(§2) The propensity of human JmjC KDMs to catalyse demethylation at H1.4K26 was investigated using recombinant forms of the catalytic domains of representatives of each human JmjC KDM subfamily (KDM2‐7) and fragment peptides (Table S1) 37. Three peptides with identical sequences, corresponding to residues 18–32 of histone H1.4 (H2N‐[…]‐CONH2), but containing either a N ^ε‐tri‐, di‐ or monomethyllysine at K26 were synthesised (Fig. 1B and Table S1). Activity assays monitoring JmjC KDM‐catalysed demethylation of the peptides were then carried out; samples were prepared containing each peptide, 2‐oxoglutarate (2OG), ferrous iron, ascorbate and individual representatives from each JmjC KDM subfamily (KDM2A 38, KDM3A 21, KDM4E 22, KDM5C 39, 40, KDM6B 41, KDM7A 42).

KDM4C (KDM4C1–359) = experiment: MALDI-TOF MS demethylation activity assay, KDM4C; assay type: biochemical, human; design: key: 🟢: Indicates that clear demethylation activity was observed; 🟡: Indicates that low level demethylation activity was observed (<10% conversion after 1 h); 🔴: Indicates no activity under the stated conditions (1 μM KDM, 10 μM peptide); 🟡*: *Indicates demethylation activity was only observed with 5 μM KDM; details: peptide as substrate, 1 μM KDM, 10 μM peptide, 50 mM HEPES pH 7.5, Fe(II) 10 μM, ascorbate 100 μM, 2OG 200 μM, 1 h at 37 °C
Description: as §1
Given the activity observed with KDM4E and KDM7A, we decided to investigate the intra‐subfamily conservation of this demethylation activity. The demethylation activity of the other subfamily members (KDM4A‐D and KDM7B) was therefore screened. […] Note that as with H3K9, demethylation of the monomethylated H1.4K26 peptide was only observed with KDM4E, under the stated conditions 24.

KDM7A (KDM7A38–480) = experiment: MALDI-TOF MS demethylation activity assay, KDM7A; assay type: biochemical, human; design: key to demethylation activity on methylated H1.4 peptide: 🟢: Indicates that clear demethylation activity was observed; 🟡: Indicates that low level demethylation activity was observed (<10% conversion after 1 h); 🔴: Indicates no activity under the stated conditions (1 μM KDM, 10 μM peptide); 🟡*: *Indicates demethylation activity was only observed with 5 μM KDM; details: peptide as substrate; MALDI-TOF MS; 1 μM KDM, 10 μM peptide, 50 mM HEPES pH 7.5, Fe(II) 10 μM, ascorbate 100 μM, 2OG 200 μM, 1 mM TCEP, 1 h at 37 °C
Description: as §1, §2
N ^ε‐Trimethylated H3K4 binds to the plant homeobox domain of KDM7B, targeting the N ^ε‐dimethyllysine at H3K9 to the catalytic domain, and thus promoting demethylation 29, 44. To test whether similar targeting may occur with H1.4, promoting activity at H1.4K26, an H1.4 peptide was synthesised containing di‐N ^ε‐methyllysine at K26 and tri‐N ^ε‐methyllysine at K21 (i.e. at the equivalent position in the sequence to K4 in the H3 peptide, Fig. 1B, Table S1). Monomethylation at H1.4K21 has previously been observed by proteomic mass spectrometry 45. With the aim of enhancing activity, the enzyme concentration was increased from 1 μM to 5 μM, and time course analyses were conducted with both KDM7A and KDM7B, both with the new peptide (H1.4(18–32)K21me3K26me2) and the H1.4 peptides methylated only at K26 (Fig. 2B). […] Thus, it appears unlikely that N ^ε‐trimethylation at H1.4K21 promotes demethylation at H1.4K26 by KDM7B.

recombinant human KDM4A = biological target: T1, recombinant human KDM4A (Homo sapiens, UniProt O75164); experiment: Formaldehyde dehydrogenase (FDH)-coupled demethylation assay, Michaelis–Menten kinetics; assay type: biochemical; details: peptide as substrate
T1 construct: recombinantly expressed as reported either in Escherichia coli (KDM2A1–557 25, KDM4A1–359 26); His6 (N); made in house; host or cells: Escherichia coli
T1 sequence (O75164 1-359): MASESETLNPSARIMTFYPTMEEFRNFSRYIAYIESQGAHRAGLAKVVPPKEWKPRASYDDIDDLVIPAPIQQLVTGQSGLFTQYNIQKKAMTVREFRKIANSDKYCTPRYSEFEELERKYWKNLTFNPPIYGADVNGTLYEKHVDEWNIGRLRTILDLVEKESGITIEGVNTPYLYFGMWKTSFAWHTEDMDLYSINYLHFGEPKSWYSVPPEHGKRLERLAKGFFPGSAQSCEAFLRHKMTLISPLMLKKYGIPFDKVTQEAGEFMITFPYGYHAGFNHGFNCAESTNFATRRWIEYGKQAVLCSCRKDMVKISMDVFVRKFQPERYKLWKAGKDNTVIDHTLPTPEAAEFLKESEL
Description: Kinetic parameters for KDM4 enzymes were determined by use of an FDH (formaldehyde dehydrogenase)/NAD^+‐coupled) assay for quantification of the formaldehyde reaction byproduct, as previously described 27. […] Specific activities were measured using a 100‐μM peptide. For Michaelis–Menten experiments, peptide concentrations were varied. Reactions were monitored using a PHERAstar FS plate reader (BMG Labtech, Ortenberg, Germany) with 355 nm excitation and 460 nm emission. Kinetic parameters were calculated from the reaction rate during the initial linear phase of formaldehyde production, which were used to calculate specific activities or fitted to Michaelis–Menten equations using […] PRISM (GraphPad Software, La Jolla, CA, USA).
Michaelis–Menten kinetics were then conducted with KDM4A. Samples containing KDM4A, 2OG, ascorbate, H1.4K26me3 peptide, NAD^+ and FDH were analysed over time and kinetic parameters were determined by recording the initial reaction rates of NADH production (corresponding to enzymatic production of formaldehyde) at varying peptide concentration.

[1] = concentration varied, FDH/NAD+-coupled fluorescence assay, 50 mM HEPES pH 7.5, 0.01% Tween-20, 2OG 200 μM, KDM4A, mean and standard deviation of three independent replicates, SD

TPVKKKAR[Lys(Me3)]SAGAAK [H1.4(18–32)K26me3, peptide of residues 18–32 of histone H1.4 with N ε-trimethyllysine at K26]
demethylation activity on methylated H1.4 peptide (KDM2A (KDM2A1–557)): 🔴
demethylation activity on methylated H1.4 peptide (KDM4C (KDM4C1–359)): 🟢
demethylation activity on methylated H1.4 peptide (KDM7A (KDM7A38–480)): 🔴
K M (recombinant human KDM4A; [1]): 32.3 ± 6.4 µM
k cat (recombinant human KDM4A; [1]): 0.32 ± 0.049 s⁻¹
k cat/K M (recombinant human KDM4A; FDH-coupled assay, ratio of k cat (s^−1) and K M (μM)): 9800 M⁻¹ s⁻¹
